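Cultured in 96-well plates, cells were exposed to test compound for 48 hours across five concentrations. GI50 = concentration required for 50% inhibition of growth. TGI is the concentration that stops growth completely.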
How the values were obtained:
Assay in all cases: inhibition of tumour cell growth, NCI panel, 48 h
786-0 renal = tested on: 786-0 renal
A498 renal = tested on: A498 renal
A549 NSCLC = tested on: A549 NSCLC
ACHN renal = tested on: ACHN renal
BT-549 breast = tested on: BT-549 breast
CAKI-1 renal = tested on: CAKI-1 renal
CCRF-CEM leukemia = tested on: CCRF-CEM leukemia
COLO 205 colon = tested on: COLO 205 colon
DU-145 prostate = tested on: DU-145 prostate
EKVX NSCLC = tested on: EKVX NSCLC
HCC-2998 colon = tested on: HCC-2998 colon
HCT-116 colon = tested on: HCT-116 colon
HCT-15 colon = tested on: HCT-15 colon
HL-60(TB) leukemia = tested on: HL-60(TB) leukemia
HOP-62 NSCLC = tested on: HOP-62 NSCLC
HOP-92 NSCLC = tested on: HOP-92 NSCLC
HS 578T breast = tested on: HS 578T breast
IGROV1 ovarian = tested on: IGROV1 ovarian
K-562 leukemia = tested on: K-562 leukemia
KM12 colon = tested on: KM12 colon
M14 melanoma = tested on: M14 melanoma
MALME-3M melanoma = tested on: MALME-3M melanoma
MCF7 breast = tested on: MCF7 breast
MDA-MB-231 breast = tested on: MDA-MB-231 breast
MDA-MB-435 = tested on: MDA-MB-435
MDA-MB-468 breast = tested on: MDA-MB-468 breast
MOLT-4 leukemia = tested on: MOLT-4 leukemia
NCI-H226 lung = tested on: NCI-H226 lung
NCI-H23 lung = tested on: NCI-H23 lung
NCI-H460 lung = tested on: NCI-H460 lung
NCI-H522 lung = tested on: NCI-H522 lung
NCI/ADR-RES ovarian = tested on: NCI/ADR-RES ovarian
OVCAR-3 ovarian = tested on: OVCAR-3 ovarian
OVCAR-4 ovarian = tested on: OVCAR-4 ovarian
OVCAR-5 ovarian = tested on: OVCAR-5 ovarian
OVCAR-8 ovarian = tested on: OVCAR-8 ovarian
PC-3 prostate = tested on: PC-3 prostate
RPMI-8226 leukemia = tested on: RPMI-8226 leukemia
RXF 393 renal = tested on: RXF 393 renal
SF-268 CNS = tested on: SF-268 CNS
SF-295 CNS = tested on: SF-295 CNS
SF-539 CNS = tested on: SF-539 CNS
SK-MEL-2 melanoma = tested on: SK-MEL-2 melanoma
SK-MEL-28 melanoma = tested on: SK-MEL-28 melanoma
SK-MEL-5 melanoma = tested on: SK-MEL-5 melanoma
SK-OV-3 ovarian = tested on: SK-OV-3 ovarian
SN12C renal = tested on: SN12C renal
SNB-19 CNS = tested on: SNB-19 CNS
SNB-75 CNS = tested on: SNB-75 CNS
SR leukemia = tested on: SR leukemia
SW-620 colon = tested on: SW-620 colon
T-47D breast = tested on: T-47D breast
TK-10 renal = tested on: TK-10 renal
U251 CNS = tested on: U251 CNS
UACC-257 melanoma = tested on: UACC-257 melanoma
UACC-62 melanoma = tested on: UACC-62 melanoma
UO-31 renal = tested on: UO-31 renal

In the case of `O=C1CCC(N2C(=O)c3cccc(NCCCCCC(=O)N4CCN(c5ccc6nc7c(nc6c5C(F)(F)F)C(=O)c5ncccc5C7=O)CC4)c3C2=O)C(=O)N1` (centres undefined), the GI50 (786-0 renal) is reported as 1590 nM, the TGI (786-0 renal) is reported as 4580 nM and the GI50 (A498 renal) is reported as 1200 nM. The TGI (A498 renal) was 2290 nM, the GI50 (A549 NSCLC) was 193 nM and the TGI (A549 NSCLC) was 712 nM. The GI50 (ACHN renal) was 1090 nM, the TGI (ACHN renal) was 2530 nM and the GI50 (BT-549 breast) was 244 nM. The TGI (BT-549 breast) was 1460 nM, the GI50 (CAKI-1 renal) was 889 nM and the TGI (CAKI-1 renal) was 2200 nM. The GI50 (CCRF-CEM leukemia) was 1970 nM, the TGI (CCRF-CEM leukemia) was over 70500 nM and the GI50 (COLO 205 colon) was 175 nM. For the same molecule, the TGI (COLO 205 colon) was 475 nM, the GI50 (DU-145 prostate) was 163 nM and the TGI (DU-145 prostate) was 398 nM. The GI50 (EKVX NSCLC) was 1300 nM, the TGI (EKVX NSCLC) was 3920 nM and the GI50 (HCC-2998 colon) was 275 nM. It also gave a TGI (HCC-2998 colon) of 1040 nM, a GI50 (HCT-116 colon) of 1780 nM and a TGI (HCT-116 colon) of 4620 nM. The GI50 (HCT-15 colon) was 81.9 nM, the TGI (HCT-15 colon) was 813 nM and the GI50 (HL-60(TB) leukemia) was 919 nM. The TGI (HL-60(TB) leukemia) was over 18800 nM, the GI50 (HOP-62 NSCLC) was 321 nM and the TGI (HOP-62 NSCLC) was 1400 nM. For the same molecule, the GI50 (HOP-92 NSCLC) was 1200 nM, the TGI (HOP-92 NSCLC) was 5810 nM and the GI50 (HS 578T breast) was 946 nM. For the same molecule, the TGI (HS 578T breast) was 3920 nM, the GI50 (IGROV1 ovarian) was 827 nM and the TGI (IGROV1 ovarian) was 1830 nM. For the same molecule, the GI50 (K-562 leukemia) was 1010 nM, the TGI (K-562 leukemia) was over 70500 nM and the GI50 (KM12 colon) was 1430 nM. The TGI (KM12 colon) was 3590 nM, the GI50 (M14 melanoma) was 130 nM and the TGI (M14 melanoma) was 292 nM. The GI50 (MALME-3M melanoma) was 76.2 nM, the TGI (MALME-3M melanoma) was 541 nM and the GI50 (MCF7 breast) was 197 nM. It also gave a TGI (MCF7 breast) of 705 nM, a GI50 (MDA-MB-231 breast) of 23.4 nM and a TGI (MDA-MB-231 breast) of 2500 nM. It also gave a GI50 (MDA-MB-435) of 555 nM, a TGI (MDA-MB-435) of 1540 nM and a GI50 (MDA-MB-468 breast) of 1180 nM. The TGI (MDA-MB-468 breast) was 2680 nM, the GI50 (MOLT-4 leukemia) was 1500 nM and the TGI (MOLT-4 leukemia) was over 17800 nM. For the same molecule, the GI50 (NCI-H226 lung) was 160 nM, the TGI (NCI-H226 lung) was 1100 nM and the GI50 (NCI-H23 lung) was 138 nM. For the same molecule, the TGI (NCI-H23 lung) was 315 nM, the GI50 (NCI-H460 lung) was 141 nM and the TGI (NCI-H460 lung) was 287 nM. The GI50 (NCI-H522 lung) was 1020 nM, the TGI (NCI-H522 lung) was 2200 nM and the GI50 (NCI/ADR-RES ovarian) was 2070 nM. The TGI (NCI/ADR-RES ovarian) was 20800 nM, the GI50 (OVCAR-3 ovarian) was 1190 nM and the TGI (OVCAR-3 ovarian) was 3210 nM. It also gave a GI50 (OVCAR-4 ovarian) of 1490 nM, a TGI (OVCAR-4 ovarian) of 4830 nM and a GI50 (OVCAR-5 ovarian) of 1010 nM. The TGI (OVCAR-5 ovarian) was 2170 nM, the GI50 (OVCAR-8 ovarian) was 1300 nM and the TGI (OVCAR-8 ovarian) was 3670 nM. For the same molecule, the GI50 (PC-3 prostate) was 376 nM, the TGI (PC-3 prostate) was over 19000 nM and the GI50 (RPMI-8226 leukemia) was 741 nM. For the same molecule, the TGI (RPMI-8226 leukemia) was 4540 nM, the GI50 (RXF 393 renal) was 981 nM and the TGI (RXF 393 renal) was 2060 nM. For the same molecule, the GI50 (SF-268 CNS) was 1360 nM, the TGI (SF-268 CNS) was 5050 nM and the GI50 (SF-295 CNS) was 150 nM. The TGI (SF-295 CNS) was 384 nM, the GI50 (SF-539 CNS) was 1000 nM and the TGI (SF-539 CNS) was 1950 nM. It also gave a GI50 (SK-MEL-2 melanoma) of 1030 nM, a TGI (SK-MEL-2 melanoma) of 2160 nM and a GI50 (SK-MEL-28 melanoma) of 386 nM. The TGI (SK-MEL-28 melanoma) was 1290 nM, the GI50 (SK-MEL-5 melanoma) was 296 nM and the TGI (SK-MEL-5 melanoma) was 1040 nM. It also gave a GI50 (SK-OV-3 ovarian) of 768 nM, a TGI (SK-OV-3 ovarian) of 2200 nM and a GI50 (SN12C renal) of 192 nM. For the same molecule, the TGI (SN12C renal) was 738 nM, the GI50 (SNB-19 CNS) was 149 nM and the TGI (SNB-19 CNS) was 393 nM. The GI50 (SNB-75 CNS) was 743 nM, the TGI (SNB-75 CNS) was 1590 nM and the GI50 (SR leukemia) was 227 nM. It also gave a TGI (SR leukemia) of over 70500 nM, a GI50 (SW-620 colon) of 368 nM and a TGI (SW-620 colon) of 1810 nM. It also gave a GI50 (T-47D breast) of 1560 nM, a TGI (T-47D breast) of 5290 nM and a GI50 (TK-10 renal) of 1920 nM. For the same molecule, the TGI (TK-10 renal) was 5670 nM, the GI50 (U251 CNS) was 177 nM and the TGI (U251 CNS) was 577 nM. For the same molecule, the GI50 (UACC-257 melanoma) was 1060 nM, the TGI (UACC-257 melanoma) was 2170 nM and the GI50 (UACC-62 melanoma) was 529 nM. The TGI (UACC-62 melanoma) was 1540 nM, the GI50 (UO-31 renal) was 892 nM and the TGI (UO-31 renal) was 1810 nM.
